Experimental data published in ChEMBL document CHEMBL1201862, “PubChem BioAssay data set” (2004).
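Dose response: 5 concentrations. Exposure: 48 h. Format: 96-well plates. Endpoint: linear interpolation; highest concentration if not reached. GI50 marks 50% less growth.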 Active and inactive are the calls of the source. Cut-off read from the data, not from the text of the source: active = GI50 up to about 1.1 µM and inactive = higher.

Tests used:
Experiment in all cases: NCI-60 cell line screen, 48 h
SW-620 = system: SW-620
OVCAR-5 = system: OVCAR-5
SK-MEL-2 = system: SK-MEL-2
SK-MEL-5 = system: SK-MEL-5
HCT-15 = system: HCT-15
LOX IMVI = system: LOX IMVI
MOLT-4 = system: MOLT-4
HCT-116 = system: HCT-116
KM-20L2 = system: KM-20L2
SNB-78 = system: SNB-78
M19-MEL = system: M19-MEL
Malme-3M = system: Malme-3M
MDA-N = system: MDA-N
Hs-578T = system: Hs-578T
MDA-MB-435 = system: MDA-MB-435
MCF7 = system: MCF7
BT-549 = system: BT-549
PC-3 = system: PC-3
MDA-MB-231 = system: MDA-MB-231
DU-145 = system: DU-145

SMILES | GI50 (SW-620) | GI50 (OVCAR-5) | GI50 (SK-MEL-2) | GI50 (SK-MEL-5) | GI50 (HCT-15) [µM] | GI50 (LOX IMVI) | GI50 (MOLT-4) | GI50 (HCT-116) | GI50 (KM-20L2) | GI50 (SNB-78) | GI50 (M19-MEL) | GI50 (Malme-3M) | GI50 (MDA-N) | GI50 (Hs-578T) | GI50 (MDA-MB-435) | GI50 (MCF7) | GI50 (BT-549) | GI50 (PC-3) | GI50 (MDA-MB-231) | GI50 (DU-145)
Cc1cc(O)nc(NN2C(Cl)C(=O)C2c2cccc([N+](=O)[O-])c2)n1 (stereo not given) | 35.1 µM (inactive) | > 100 µM (inactive) | 19 µM (inactive) | 17.5 µM (inactive) | 15.1 | 12.3 µM (inactive) | 14.3 µM (inactive) | 19.7 µM (inactive) | 27.3 µM (inactive) | 32.2 µM (inactive) | 19.5 µM (inactive) |  |  |  |  |  |  |  |  | 
C[C@@H]1O[C@]2(O)[C@@H]3CCCN3S(=O)(=O)CCN2C1=O | > 100 µM (inactive) | > 100 µM (inactive) |  | > 100 µM (inactive) | > 100 | > 100 µM (inactive) | > 100 µM (inactive) | > 100 µM (inactive) | > 100 µM (inactive) | > 100 µM (inactive) | > 100 µM (inactive) | > 100 µM (inactive) |  |  |  |  |  |  |  | 
COc1cc2c(cc1O)CC[C@@H]1C2CC[C@@]2(C)C1CC[C@@H]2O (stereo not given in full) | 0.635 µM (active) | 37 µM (inactive) | 1.32 µM (inactive) | 1.35 µM (inactive) | 0.566 | 2.89 µM (inactive) | 0.532 µM (active) | 1.19 µM (inactive) |  |  |  | 0.771 µM (active) | 0.103 µM (active) | 1.14 µM (inactive) | 0.105 µM (active) | 1.6 µM (inactive) | 0.472 µM (active) | 6.24 µM (inactive) | 3.4 µM (inactive) | 2.46 µM (inactive)
CCOC(=O)C1S(=O)(=O)OCCOS1(=O)=O | > 100 µM (inactive) |  | > 100 µM (inactive) | > 100 µM (inactive) |  | > 100 µM (inactive) | > 100 µM (inactive) | > 100 µM (inactive) |  | > 100 µM (inactive) | > 100 µM (inactive) | > 100 µM (inactive) |  |  |  |  |  |  |  | 
COC(=O)C(=O)C(C(=O)OC)C(=O)C(=O)Nc1cc(Cl)c(Cl)cc1Cl (stereo not given) |  | > 100 µM (inactive) | > 100 µM (inactive) | > 100 µM (inactive) | 47.1 | 61 µM (inactive) | > 100 µM (inactive) | 22.4 µM (inactive) | > 100 µM (inactive) |  | > 100 µM (inactive) | > 100 µM (inactive) |  |  |  |  |  |  |  | 
O=c1oc2ccccc2cc1-c1cn2cc(Cl)ccc2n1 | 0.361 µM (active) | 10.1 µM (inactive) | 3.27 µM (inactive) | 0.782 µM (active) | 0.298 | 0.698 µM (active) | 0.422 µM (active) | 0.448 µM (active) |  |  |  | 0.458 µM (active) | 0.0881 µM (active) | 1.23 µM (inactive) | 0.0434 µM (active) | 0.435 µM (active) | 2.33 µM (inactive) | 1.93 µM (inactive) | 3.01 µM (inactive) | 5.57 µM (inactive)
Cc1ccc(S(=O)(=O)NN=C2CCCCCCCCCCC2)cc1 | > 100 µM (inactive) | > 100 µM (inactive) | > 100 µM (inactive) | > 100 µM (inactive) | > 100 | > 100 µM (inactive) | > 100 µM (inactive) | > 100 µM (inactive) |  |  |  | > 100 µM (inactive) | > 100 µM (inactive) | 35.7 µM (inactive) | > 100 µM (inactive) | > 100 µM (inactive) | > 100 µM (inactive) | > 100 µM (inactive) | > 100 µM (inactive) | > 100 µM (inactive)
CC(=O)c1cccc(NC(=O)C(=O)C(C(=O)c2ccccc2F)C2OC(=O)c3ccccc32)c1 (stereo not given) | 99.5 µM (inactive) | 64.3 µM (inactive) | 29.8 µM (inactive) | 64 µM (inactive) | 30.2 | 19.5 µM (inactive) | 22.8 µM (inactive) | 33.3 µM (inactive) | 40.2 µM (inactive) | 12.5 µM (inactive) | 23.1 µM (inactive) |  |  |  |  |  |  |  |  | 
CCOC(=O)c1c(-c2ccccc2)c(C(OC(c2ccccc2)c2c(-c3ccccc3)c(C(=O)OCC)n3ccccc23)c2ccccc2)c2ccccn12 (stereo not given) | > 100 µM (inactive) | > 100 µM (inactive) | > 100 µM (inactive) |  | > 100 | > 100 µM (inactive) | > 100 µM (inactive) | > 100 µM (inactive) | > 100 µM (inactive) | > 100 µM (inactive) |  | > 100 µM (inactive) |  |  |  |  |  |  |  | 
O=C1CSC(c2ccc(Cl)cc2Cl)N1c1ccc(Oc2ccc(Cl)cc2)c(Cl)c1 (stereo not given) | 36.5 µM (inactive) | 33.3 µM (inactive) | 22.4 µM (inactive) | 19 µM (inactive) | 25.6 | 16.7 µM (inactive) | 24.3 µM (inactive) | 16.9 µM (inactive) |  |  |  | 16.9 µM (inactive) | 21.7 µM (inactive) | 14.7 µM (inactive) | 12.6 µM (inactive) | 33.2 µM (inactive) | 22.2 µM (inactive) | 27.8 µM (inactive) | 19.4 µM (inactive) | 32.1 µM (inactive)
